# In article PMC9475553, “SHF Acts as a Novel Tumor Suppressor in Glioblastoma Multiforme by Disrupting STAT3 Dimerization” (Advanced Science, 2022):
# Experiments:
# Assay type in all cases: cell-based, human
# STAT3 dimerization = assay: FRET assay: STAT3 dimerization in U251 cells; conditions: U251 cells transfected for 24 h, then C16 2 h; n=3, P < 0.01
# Method: Spectral fluorescence resonance energy transfer (FRET) assay was used to examine the dimerization of STAT3 and interaction between STAT3 and SHF. The procedure was performed as described previously.^[ [46] ^] Briefly, U251 cells were seeded at a density of 20 000 cells/compartment on coverslips coated with 1% poly‐L‐lysine (Sigma) in 24 well‐plates. For detecting SHF inhibiting STAT3 dimerization, ectopic SHF‐expressing stable U251 cells were transfected with STAT3‐DsRed and STAT3‐EGFP. For detecting SHF binding STAT3, U251 cells were transfected with SHF‐DsRed and STAT3‐EGFP. Cells were imaged on a Leica TCS SP8 confocal microscope (40× objective and 10× objective, 488 nm Argon laser line) after 24 h. Cells were excited with 488 nm laser (donor), and the emission of the acceptor DsRed was recorded at 565 nm. The FRET efficiency was calculated on a pixel‐by‐pixel basis with the following equation: FRET efficiency = FRETcorr / (FRETcorr + Donor). […] To increase the reliability of the calculations and prevent noise from distorting the calculated ratio, we excluded pixels below 50 intensity units and saturated pixels from the calculations and set their intensities to zero. […]
# Supplementary Fig. 8 Quantitative analysis of normalized FRET ratio in U251 cells (n=3, […]
# [1] = test system: STAT3 transcriptional activity; assay: STAT3 transcriptional reporter (SIE luciferase) assay in U87 cells; conditions: C16 for 12 h, n = 3, p < 0.01
# Method: Figure 7 Peptide derived from the STAT3‐binding sites of SHF is an effective GBM suppressive strategy. A) Binding model between SHF and STAT3 using ZDOCK server. […] B) IF staining determined the cell penetrability and nuclear‐localization of C16. U251 cells were incubated with C16 or SC for 2 h and performed IF staining using the indicated antibodies. Bars, 10 µm. C) The statical analysis of adsorption equilibrium assay detecting the binding of C16 and SC with recombinant STAT3. D) Pull‐down assay indicating C16 binds STAT3. GST‐STAT3 was incubated with C16 or SC for 2 h, and the pull‐down assay was performed using Anti‐His magnetic beads. E) IP assay showing the effect of C16 on STAT3 dimerization. 293T cells transfected with indicated vectors were incubated with C16 for 2 h. The relative quantification of STAT3 dimerization was listed. F) IP assay detecting the effect of C16 on the interaction of STAT3 and DNMT1. […] The relative quantification of STAT3/DNMT1 interaction was listed. […] The relative quantification of STAT3/DNMT1 interaction was listed. […] Positive cells were quantified 20 randomly selected fields per mouse (n = 6, Student's t‐test, **p < 0.01). […]
# STAT3 transcriptional activity was evaluated by a luciferase reporter system according our previously study.^[ [19] ^] […] Cells were collected, lysed, and measured using the Dual‐Glo Luciferase Assay System kit (Promega).
# GBM cells = assay: Colony formation assay; conditions: C16 vs SC; 25 uM stated adequate for subsequent experiments; n=6, P < 0.01
# Method: Cell growth was quantified using the Cell Counting Kit‐8 Assay Kit (Bimake, Houston, TX). Each experiment was repeated at least six times. For the colony formation assay, 800 cells were seeded into each well of a six‐well plate with soft agar (Agarose; Sigma, St. Louis, MO) and maintained in a medium containing 10% FBS for 14 days. The colonies were fixed with methanol and stained with 0.1% crystal violet; the clones containing at least 50 cells were counted using an inverted microscope.
# Supplementary Fig. 9 C16 inhibits tumor growth and promotes chemosensitivity in vitro.
# B. Colony formation of cells treated with SC or C16 (left) and the accompanying statistical
# analysis (right; n=6, Student’s t-test, **P < 0.01).
# C. Annexin V staining flow cytometry assay of cells simultaneously treated with Dox with SC or
# C16 for 48 h (n=3, Student’s t-test, *P < 0.05, **P < 0.01).
# (1 picture or pasted object on this page, not shown here)
substance,measurement,setting,value
"C16: peptide spanning SHF amino acids 388–421, palmitic acid at the N-terminus, amidated C-terminus, 3× His tags added to the C-terminal (PFSSVPEIVHHYASRKLPIKGAEHMSLLYPVAIR; palmitic acid at the N-terminus; amidated C-terminus; left off: 3× His tags, C-terminal, kept)",inhibition of STAT3 dimerization (FRET),STAT3 dimerization,effectively inhibits STAT3 dimerization
same,STAT3 transcriptional activity,[1],significant decrease
same,colony growth,GBM cells,effectively impaired colony growth
